Reference: PubChem BioAssay AID2060893 (Molecular Pharmacology Branch, DTP, NCI, 2025)

System: K86415-001-R-J1-PDC complex spheroids, viability
Assay: Anticancer human tumor K86415-001-R-J1-PDC patient-derived lung adenocarcinoma cell line growth inhibition [RAS]
Settings: for IC50: curve of first compound; for viability, T/C: stronger effect = lower value
Text: RAS pathway inhibitors in Combinations in Complex Spheroids
A high-throughput screen of multi-cell type tumor spheroids was designed to identify active combinations of RAS pathway inhibitors and targeted small molecules. Complex spheroids include a stromal component modeled by human endothelial cells (HUVEC) and fibroblasts modeled by human mesenchymal stem cells (MSCs). The concentration ranges selected for each drug and investigational agent were based upon clinically achievable concentrations if the clinical Cmax of the agent was known.
Compounds. The drugs and investigational agents: abemaciclib (NSC768073), cobimetinib (NSC768068), divarasib (GDC6063, NSC841802), docetaxel (NSC628503), GDC-1971 (RLY-1971, NSC841576), gemcitabine (NSC613327), inavolisib (NSC800729), ipatasertib (NSC767898), KB-0742 (NSC834161), MRTX-1133 (NSC836407), osimertinib (NSC779217), RMC-4630 (NSC839698), RMC-6236 (NSC851965), RMC-6291 (NSC852671), Ro-3306 (NSC812927), sapanisertib (NSC764658), SN-38 (NSC673596), staurosporine (NSC755774), SY5609 (NSC837396), and tovorafenib (DAY101, NSC766906), were obtained from the National Cancer Institute (NCI) Developmental Therapeutics Program Chemical Repository. The FDA-approved anticancer drug set is available from the NCI Developmental Therapeutics Program. […] The stock solutions were prepared in dimethyl sulfoxide (DMSO, Sigma-Aldrich, St. Louis, MO, cat. D2650) at 800-fold the tested concentration and stored at -70 degrees C prior to their use. All drugs and investigational agents were tested over a range starting from a high concentration at or near the clinical Cmax and decreasing in half-log increments. If the clinical Cmax for an agent had not been determined, the highest concentration tested was 10 microM.
Cell Culture. All cells were maintained in an incubator at 37 degrees C and 5% CO2 with 95% humidity. The PDC lines were cultured according to standard operating procedures established by the NCI PDMR. All PDCs were thawed and cultured in Matrigel-coated flasks prepared with a working solution of 1X Ham's F-12 nutrient mix, without supplementation (Invitrogen, Waltham, MA, cat. 11765054), 100 U/mL penicillin-streptomycin (Invitrogen, cat. 15140122), and 2.5% Matrigel (Corning Inc., Corning, NY, cat. 354248) for the first three passages. The 362531-283-R-J2-PDC and 782815-120-R-J1-PDC lines were cultured in 6C/Colon 1B media, which includes advanced DMEM/F-12 (Thermo Fisher Scientific, cat. 12634028), 10 mM HEPES (Thermo Fisher Scientific, cat. 15630080), 1X GlutaMAX supplement (Thermo Fisher Scientific, cat. 35050061), 0.1 mg/mL primocin (InvivoGen, San Diego, CA, cat. ant-pm-2), 10% defined fetal bovine serum, heat inactivated (HyClone Laboratories Inc., Logan, UT, cat. SH30070.03HI), 50% L-WRN conditioned media (ATCC, cat. CRL-3276), 1.25 mM N-Acetyl-L-cysteine (Sigma-Aldrich, cat. A9165), 10 mM nicotinamide (Sigma-Aldrich, cat. N0636), 1X B-27 supplement (Thermo Fisher Scientific, cat. 17504044), 1X N-2 supplement (Thermo Fisher Scientific, cat. 17502048), 50 ng/mL human EGF (Thermo Fisher Scientific, cat. PHG0311), and 10 microM Y-27632 dihydrochloride (Tocris Bioscience, cat. 1254). The K12877-001-R-J1-PDC line was cultured in 6I media, which includes all 6C/Colon 1B media plus 10 ng/mL human FGF-10 (PeproTech, cat. 100-26), 1 ng/mL human FGF-2 (PeproTech, cat. 100-18B), 1 µM prostaglandin E2 (Tocris Bioscience, cat. 2296), […] hydrocortisone (Sigma-Aldrich, cat. H4001), and […] bovine insulin (Sigma-Aldrich, cat. I6634). The K86415-001-R-J1-PDC line was cultured in 6D media, which includes all 6C/Colon 1B media components minus the L-WRN conditioned media. The 485176-168-R4-J1-PDC was cultured in PANC media, which includes all 6C/Colon 1B media plus 100 ng/mL human FGF-10 (PeproTech, cat. 100-26), 500 nM SB-431542 (Selleckchem, cat. S1067), and 10 nM gastrin (Tocris Bioscience, cat. 3006). […]

[1] = second compound 0.0316 µM, first compound 0.0316 µM
[2] = second compound 0.0316 µM, first compound 0.1 µM
[3] = second compound 0.0316 µM, first compound 0.316 µM
[4] = second compound 0.0316 µM, first compound 1 µM
[5] = second compound 0.0316 µM, first compound 3.16 µM
[6] = second compound 0.0316 µM, first compound 10 µM
[7] = second compound 0.1 µM, first compound 0.0316 µM
[8] = second compound 0.1 µM, first compound 0.1 µM
[9] = second compound 0.1 µM, first compound 0.316 µM
[10] = second compound 0.1 µM, first compound 1 µM
[11] = second compound 0.1 µM, first compound 3.16 µM
[12] = second compound 0.1 µM, first compound 10 µM
[13] = second compound 0.316 µM, first compound 0.0316 µM
[14] = second compound 0.316 µM, first compound 0.1 µM
[15] = second compound 0.316 µM, first compound 0.316 µM
[16] = second compound 0.316 µM, first compound 1 µM
[17] = second compound 0.316 µM, first compound 3.16 µM
[18] = second compound 0.316 µM, first compound 10 µM
[19] = second compound 1 µM, first compound 0.0316 µM
[20] = second compound 1 µM, first compound 0.1 µM
[21] = second compound 1 µM, first compound 0.316 µM
[22] = second compound 1 µM, first compound 1 µM
[23] = second compound 1 µM, first compound 3.16 µM
[24] = second compound 1 µM, first compound 10 µM
[25] = second compound 3.16 µM, first compound 0.0316 µM
[26] = second compound 3.16 µM, first compound 0.1 µM
[27] = second compound 3.16 µM, first compound 0.316 µM
[28] = second compound 3.16 µM, first compound 1 µM
[29] = second compound 3.16 µM, first compound 3.16 µM
[30] = second compound 3.16 µM, first compound 10 µM
[31] = second compound 10 µM, first compound 0.0316 µM
[32] = second compound 10 µM, first compound 0.1 µM
[33] = second compound 10 µM, first compound 0.316 µM
[34] = second compound 10 µM, first compound 1 µM
[35] = second compound 10 µM, first compound 3.16 µM
[36] = second compound 10 µM, first compound 10 µM
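Also: spheroids exposed to agents for seven days before readout.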

CC(C)NCC(C(=O)N1CCN(c2ncnc3c2C(C)CC3O)CC1)c1ccc(Cl)cc1 (stereo unspecified) + C#Cc1c(F)ccc2cc(O)cc(-c3ncc4c(N5CC6CCC(C5)N6)nc(OCC56CCCN5CC(F)C6)nc4c3F)c12
IC50 (second compound 0.0316 µM): 7490 nM | IC50 (second compound 0.1 µM): 7290 nM | IC50 (second compound 0.316 µM): 7560 nM | IC50 (second compound 1 µM): 4250 nM | IC50 (second compound 3.16 µM): < 31.6 nM | IC50 (second compound 10 µM): < 31.6 nM | viability, T/C [1]: 109% | viability, T/C [2]: 106% | viability, T/C [3]: 106% | viability, T/C [4]: 89.6% | viability, T/C [5]: 72.3% | viability, T/C [6]: 42.6% | viability, T/C [7]: 113% | viability, T/C [8]: 103% | viability, T/C [9]: 113% | viability, T/C [10]: 90.4% | viability, T/C [11]: 68.7% | viability, T/C [12]: 43.1% | viability, T/C [13]: 97% | viability, T/C [14]: 94.1% | viability, T/C [15]: 90.9% | viability, T/C [16]: 84.7% | viability, T/C [17]: 64.4% | viability, T/C [18]: 45.3% | viability, T/C [19]: 74.4% | viability, T/C [20]: 62% | viability, T/C [21]: 56.2% | viability, T/C [22]: 65.1% | viability, T/C [23]: 54.8% | viability, T/C [24]: 39.3% | viability, T/C [25]: 35.2% | viability, T/C [26]: 38.2% | viability, T/C [27]: 26.3% | viability, T/C [28]: 25.8% | viability, T/C [29]: 38.4% | viability, T/C [30]: 25.6% | viability, T/C [31]: 18.7% | viability, T/C [32]: 15.8% | viability, T/C [33]: 16.4% | viability, T/C [34]: 24.7% | viability, T/C [35]: 16.9% | viability, T/C [36]: 5.88%

CC(C)n1nc(-c2ccc3oc(N)nc3c2)c2c(N)ncnc21 + C#Cc1c(F)ccc2cc(O)cc(-c3ncc4c(N5CC6CCC(C5)N6)nc(OCC56CCCN5CC(F)C6)nc4c3F)c12
IC50 (second compound 0.0316 µM): 50 nM | IC50 (second compound 0.1 µM): 48.8 nM | IC50 (second compound 0.316 µM): 57.1 nM | IC50 (second compound 1 µM): 59 nM | IC50 (second compound 3.16 µM): < 0.316 nM | IC50 (second compound 10 µM): < 0.316 nM | viability, T/C (second compound 0.0316 µM, first compound 0.000316 µM): 96.9% | viability, T/C (second compound 0.0316 µM, first compound 0.001 µM): 105% | viability, T/C (second compound 0.0316 µM, first compound 0.00316 µM): 105% | viability, T/C (second compound 0.0316 µM, first compound 0.01 µM): 89.2% | viability, T/C [1]: 63.5% | viability, T/C [2]: 30.3% | viability, T/C (second compound 0.1 µM, first compound 0.000316 µM): 99.6% | viability, T/C (second compound 0.1 µM, first compound 0.001 µM): 120% | viability, T/C (second compound 0.1 µM, first compound 0.00316 µM): 102% | viability, T/C (second compound 0.1 µM, first compound 0.01 µM): 96.5% | viability, T/C [7]: 62.4% | viability, T/C [8]: 29.3% | viability, T/C (second compound 0.316 µM, first compound 0.000316 µM): 95.2% | viability, T/C (second compound 0.316 µM, first compound 0.001 µM): 94.7% | viability, T/C (second compound 0.316 µM, first compound 0.00316 µM): 92.3% | viability, T/C (second compound 0.316 µM, first compound 0.01 µM): 96.5% | viability, T/C [13]: 67.5% | viability, T/C [14]: 33.4% | viability, T/C (second compound 1 µM, first compound 0.000316 µM): 68.8% | viability, T/C (second compound 1 µM, first compound 0.001 µM): 70.6% | viability, T/C (second compound 1 µM, first compound 0.00316 µM): 68.1% | viability, T/C (second compound 1 µM, first compound 0.01 µM): 83% | viability, T/C [19]: 70% | viability, T/C [20]: 32.4% | viability, T/C (second compound 3.16 µM, first compound 0.000316 µM): 35.4% | viability, T/C (second compound 3.16 µM, first compound 0.001 µM): 40.3% | viability, T/C (second compound 3.16 µM, first compound 0.00316 µM): 38.2% | viability, T/C (second compound 3.16 µM, first compound 0.01 µM): 44.5% | viability, T/C [25]: 52.3% | viability, T/C [26]: 28.5% | viability, T/C (second compound 10 µM, first compound 0.000316 µM): 15.9% | viability, T/C (second compound 10 µM, first compound 0.001 µM): 17.6% | viability, T/C (second compound 10 µM, first compound 0.00316 µM): 15.1% | viability, T/C (second compound 10 µM, first compound 0.01 µM): 19.3% | viability, T/C [31]: 19.5% | viability, T/C [32]: 8.39%

CC(Nc1ccc2c(c1)OCCn1cc(N3C(=O)OCC3C(F)F)nc1-2)C(N)=O (stereo unspecified) + C#Cc1c(F)ccc2cc(O)cc(-c3ncc4c(N5CC6CCC(C5)N6)nc(OCC56CCCN5CC(F)C6)nc4c3F)c12
IC50 (second compound 0.0316 µM): 1170 nM | IC50 (second compound 0.1 µM): 1620 nM | IC50 (second compound 0.316 µM): 1190 nM | IC50 (second compound 1 µM): 472 nM | IC50 (second compound 3.16 µM): < 31.6 nM | IC50 (second compound 10 µM): < 31.6 nM | viability, T/C [1]: 84.4% | viability, T/C [2]: 93.5% | viability, T/C [3]: 63.5% | viability, T/C [4]: 50.1% | viability, T/C [5]: 47.6% | viability, T/C [6]: 29.1% | viability, T/C [7]: 90.3% | viability, T/C [8]: 86.2% | viability, T/C [9]: 69.5% | viability, T/C [10]: 56% | viability, T/C [11]: 42.5% | viability, T/C [12]: 28.2% | viability, T/C [13]: 84.9% | viability, T/C [14]: 86.7% | viability, T/C [15]: 65.3% | viability, T/C [16]: 53.2% | viability, T/C [17]: 38.5% | viability, T/C [18]: 28.4% | viability, T/C [19]: 71.6% | viability, T/C [20]: 62% | viability, T/C [21]: 50.9% | viability, T/C [22]: 46.1% | viability, T/C [23]: 34.3% | viability, T/C [24]: 23.2% | viability, T/C [25]: 33.2% | viability, T/C [26]: 26.4% | viability, T/C [27]: 26.5% | viability, T/C [28]: 26.9% | viability, T/C [29]: 22.4% | viability, T/C [30]: 12.8% | viability, T/C [31]: 16.3% | viability, T/C [32]: 15.2% | viability, T/C [33]: 11.7% | viability, T/C [34]: 6.87% | viability, T/C [35]: 3.76% | viability, T/C [36]: 1.56%
